2 compounds from patent US20140239906A1, “REDOX-ACTIVE LIGAND-BASED TRANSITION METAL COMPLEX FLOW BATTERIES” (Sandia Corporation, priority 2013, published 2014) can be followed below.

Structures are written as SMILES.

A short description of series [1]: Stability under air (solid and acetonitrile solution), CV and UV-vis. The class given is physicochemical. The text has this: Long-term stability is a key consideration in the development of RFB systems and recent research has included extensive investigations of state-of-the-art aqueous RFB systems. Factors affecting stability and the decay of capacity including membrane chemistry, thermal effects, gas evolution and electrode corrosion have been identified and this remains an active research area. In comparison, the long-term stability of non-aqueous RFBs remains to be investigated. […] To investigate its stability in solution, a 1 mM acetonitrile solution was analyzed, stored for a period of one week under air atmosphere, and subsequently analyzed. […] Long-term studies to investigate the stability of the membrane, electrode and electrolytes have been initiated.

Series [2] in a line: Solubility in acetonitrile by UV-vis spectroscopy. The series is classed as physicochemical. The note with it: absorbance at 568 nm, Beers law. The protocol: Solutions were prepared by mixing roughly equal volumes of metal complex and solvent. The resulting black solution was concentrated with a stream of N2 until a slight crust began to form, which was re-dissolved with warming and agitation. The sample was then centrifuged at 8000 RPM for two hours and allowed to stand overnight. Concentrations were determined using absorbance at 568 nm, ε568=4540 M^−1cm^−1.

Series [3] can be described thus: Static cell (H-cell) galvanostatic charge-discharge cycling. Conditions: 20 mM in acetonitrile, 0.1 M [TBA][PF6]; through cycle 16.
Description: Cyclic voltammetry (CV) was carried out using a Bio-Logic SP-200 potentiostat, a glassy carbon working electrode, a Pt wire counter electrode and a silver-wire pseudo reference electrode. Ferrocene was used as an internal standard. For static cell battery testing, an H-cell was used containing 20 mM anolyte/catholyte and 100 mM [NBu4][PF6] supporting electrolyte. Charge and discharge currents were 1 mA and 0.1 mA, respectively. Graphite electrodes (POCO) having a 2 cm^2 active area and a Tonen V25EKD separator were used.
A two-compartment cell with non-flowing solutions (i.e., “static cell”) was assembled to assess the charge-discharge characteristics of [V(mnt)3]^2− in a non-aqueous environment. Both compartments contained a 20 mM solution of 1b in acetonitrile with 0.1 M tetrabutylammonium hexafluorophosphate as supporting electrolyte. Two graphite electrodes (POCO) with 2 cm^2 active areas and a V25EKD separator (Tonen) were used. Because the discharged cathode and anode complexes are both in the 2^− oxidation state, it is presumed that the cathode complex converts to the 1^− state and the anode complex converts to the 3^− state during charge.
Series [4] can be described thus: Cyclic voltammetry (redox potentials). The series is classed as physicochemical. Conditions: 20 mM in CH3CN with 0.1 M [TBA][PF6], 250 mV/s, room temperature; mid-point of anodic and cathodic peak potentials. The text has this:
Ferrocene was used as an internal standard.
CV of 1b, shown in FIG. 7, is similar to that reported previously for [V(mnt)3]^2− with various cations. Three reversible waves corresponding to the 4^−/3^−, 3^−/2^− and 2^−/1^− redox couples are observed at −1.41 V, −0.227 V and 0.856 V vs. SHE, respectively. Redox potential values reported herein correspond to the mid-point between the anodic and cathodic peak potentials of a cyclic voltammogram. […] Thus, a battery cell constructed using 1 as both anolyte and catholyte has a theoretical cell potential of […] and a theoretical energy density of 13 W·h·L^−1. However, bulk reduction of [V(mnt)3]^2− to [V(mnt)3]^3− in the anodic half-cell before charging would result in a theoretical cell potential and energy density of 2.3V and 28 W·h·L^−1, respectively. These values compare favorably to previously reported non-aqueous RFB electrolytes. A RFB based on [V(mnt)3]^2− solutions would also benefit from having the same chemical species in both half-cells, a strategy that has been employed previously to prevent irreversible self-discharge from crossover of active redox species through the membrane. This feature then also enables the use of inexpensive, microporous separators that are not ion-selective.

Consider `C[N+](C)(C)C.C[N+](C)(C)C.N#CC([S-])=C([S-])C#N.N#CC([S-])=C([S-])C#N.N#CC([S-])=C([S-])C#N.[V+4]` [1a], for which the “stability in solution (CV and UV-vis spectroscopy)” value in series [1] (1 mM acetonitrile solution, one week under air atmosphere) is “unchanged”. Moreover, in series [1] (as prepared, stored under air), the “stability as prepared to ambient oxygen and moisture” value is on record as “no decomposition was observed”.

The compound `CC[N+](CC)(CC)CC.CC[N+](CC)(CC)CC.N#CC([S-])=C([S-])C#N.N#CC([S-])=C([S-])C#N.N#CC([S-])=C([S-])C#N.[V+4]` [1b] yielded a maximum solubility in series [2] of about 900 mM. Also, in series [3], the “electrochemical yield (faradaic efficiency) of charge cycles, stabilized” value is 20-25%. Besides, in series [4], the “redox potential 2−/1− couple” value is 0.856 V vs. SHE, the “redox potential 3−/2− couple” value is listed as −0.227 V vs. SHE and the “redox potential 4−/3− couple” value is given as −1.41 V vs. SHE.
